Like-named read-outs stand apart in the source and are kept apart here.

The nature of data set [1]: Free fraction in plasma (equilibrium dialysis). In kind it is in vitro ADME, male Sprague-Dawley rat. The following applies: rat plasma, 1 μM, 5 h at 37° C. As for the experimental part:
The free fractions in male Sprague-Dawley rat or female Gottingen minipig plasma (fuplasma) and rat brain homogenate (fubrain) were determined by equilibrium dialysis using 96-well HTD-dialysis plates with dialysis membranes (molecular weight cut off 12-14 KDa). One side of the HTD-dialysis plate was loaded with matrix (plasma or brain homogenate) and the other side with buffer (100 mM sodium phosphate buffer, pH 7.4). Test compounds were dissolved in DMSO then spiked (5 μL of 0.2 mM) into blank (995 μL) plasma or diluted brain homogenate (1:4 ratio in phosphate buffer) giving a final nominal concentration 1 μM (≤0.5% DMSO). The matrices were loaded into respective chambers and equilibrated against phosphate buffer for 5 h at 37° C. (in a humidified air incubator with 5% CO2 with shaking). Samples from both chambers (buffer and plasma or brain homogenate) were aliquoted to fresh 96-well polypropylene plates then matrix matched using an equal volume of opposite blank matrix before extraction with cold solvent (3 volumes acetonitrile) containing an appropriate bioanalytical internal standard. After centrifugation (20 min, 3200 g, 4° C.) the supernatants were diluted with appropriate volumes of water and compound concentrations were quantified by LC/MS-MS against matrix matched calibration standards. The fuplasma and fubrain were calculated as a percent free according to equation 4 below.
Where [F] is the analyte concentration on the buffer (receiver) side of the membrane; [T] is the analyte concentration on the plasma or brain (donor) side of the membrane; [TO] is the analyte concentration in the plasma or brain sample at time zero; D is matrix dilution factor which is determined as 4 for brain matrix and 1 for plasma matrix in these assays.
In general terms: In equilibrium dialysis only unbound substance equilibrates across the membrane.

The nature of data set [2]: Rat B/P (brain disposition). In kind it is in vivo, male Sprague-Dawley rats. The settings on record: male, Sprague-Dawley; for concentration at 1 h / Kp uu at 1 h / Kp at 1 h: time point 1.0 h; for concentration at 1 h / Kp at 1 h / concentration at 0.5 h / Kp at 0.5 h: mean ± stdev; for Kp uu at 1 h / Kp at 1 h / Kp uu at 0.5 h / Kp at 0.5 h: brain/plasma; for Kp uu at 1 h / Kp uu at 0.5 h: fubrain from brain homogenate; for Kp at 1 h / Kp at 0.5 h: n = 3; for concentration at 0.5 h / Kp uu at 0.5 h / Kp at 0.5 h: time point 0.5 h. How it is done: Brain disposition was evaluated for each compound in male Sprague-Dawley rats (n=3, standard body weight). […] Isolated plasma and brain homogenates were extracted by standard protein precipitation in acetonitrile, containing internal standard, followed by LC-MS/MS analysis using an optimized analytical method. Concentrations of test compound in plasma and brain were quantified against matrix matched calibration standards. The total plasma and brain concentration data are presented in Table 7 alongside the calculated brain Kp (total brain concentration:total plasma concentration ratio).

In data set [3] the target is T1, LRRK2 WT (Homo sapiens, UniProt Q5S007).
T1 construct: comprises residue 970 to 2527 of the full length human wild-type LRRK2 kinase; purchased Invitrogen (Life Technologies Corporation)
T1 sequence (Q5S007 970-2527): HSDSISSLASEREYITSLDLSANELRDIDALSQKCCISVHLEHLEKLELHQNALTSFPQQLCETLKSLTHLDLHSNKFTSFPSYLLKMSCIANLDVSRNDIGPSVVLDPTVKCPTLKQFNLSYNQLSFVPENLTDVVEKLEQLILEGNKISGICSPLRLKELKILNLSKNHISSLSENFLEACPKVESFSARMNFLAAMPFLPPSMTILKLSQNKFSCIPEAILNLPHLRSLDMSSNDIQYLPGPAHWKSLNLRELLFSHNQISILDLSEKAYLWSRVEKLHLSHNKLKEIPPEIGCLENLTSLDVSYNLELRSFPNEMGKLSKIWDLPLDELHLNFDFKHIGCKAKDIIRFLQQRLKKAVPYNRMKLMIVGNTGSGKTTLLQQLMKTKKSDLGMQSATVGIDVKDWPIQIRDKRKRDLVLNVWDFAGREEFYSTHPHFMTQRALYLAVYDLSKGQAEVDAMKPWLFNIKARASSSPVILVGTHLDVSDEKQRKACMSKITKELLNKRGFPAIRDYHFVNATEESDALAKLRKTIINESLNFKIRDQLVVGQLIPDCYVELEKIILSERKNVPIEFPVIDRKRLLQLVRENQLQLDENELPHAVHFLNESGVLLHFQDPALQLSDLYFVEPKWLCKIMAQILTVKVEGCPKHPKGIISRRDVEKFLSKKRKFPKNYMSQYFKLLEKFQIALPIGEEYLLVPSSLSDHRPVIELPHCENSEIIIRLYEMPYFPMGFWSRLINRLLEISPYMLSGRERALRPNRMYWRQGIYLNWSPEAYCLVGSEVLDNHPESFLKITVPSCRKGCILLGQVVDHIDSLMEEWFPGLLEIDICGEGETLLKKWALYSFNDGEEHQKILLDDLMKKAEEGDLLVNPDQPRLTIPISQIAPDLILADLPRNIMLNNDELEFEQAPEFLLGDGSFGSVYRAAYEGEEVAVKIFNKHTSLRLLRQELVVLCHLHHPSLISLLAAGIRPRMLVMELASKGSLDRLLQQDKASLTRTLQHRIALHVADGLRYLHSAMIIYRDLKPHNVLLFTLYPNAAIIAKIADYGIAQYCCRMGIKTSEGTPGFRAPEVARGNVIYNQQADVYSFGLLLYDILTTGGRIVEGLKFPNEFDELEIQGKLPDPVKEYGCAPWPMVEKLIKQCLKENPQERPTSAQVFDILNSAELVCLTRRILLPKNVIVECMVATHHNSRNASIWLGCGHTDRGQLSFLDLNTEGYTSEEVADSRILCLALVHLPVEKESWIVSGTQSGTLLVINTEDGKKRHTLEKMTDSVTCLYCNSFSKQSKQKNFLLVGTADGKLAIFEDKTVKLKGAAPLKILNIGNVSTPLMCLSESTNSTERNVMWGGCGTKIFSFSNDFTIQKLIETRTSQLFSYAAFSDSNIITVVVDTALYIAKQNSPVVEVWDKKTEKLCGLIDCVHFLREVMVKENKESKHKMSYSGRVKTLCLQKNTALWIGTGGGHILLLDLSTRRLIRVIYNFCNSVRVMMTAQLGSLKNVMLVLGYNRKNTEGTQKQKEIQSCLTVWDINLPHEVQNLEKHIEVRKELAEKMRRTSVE
Nature of the data set: LRRK2 wild-type kinase activity assay (LanthaScreen TR-FRET). In kind it is biochemical. The following applies: 1 nM LRRK2 WT, 1.3 mM ATP, 3.5 h at 30° C.; n≥2 tests. As for the experimental part:
(§1) LRRK2 kinase activity was measured using a LanthaScreen kinase activity assay available from Invitrogen (Life Technologies Corporation). The assay is a homogeneous time resolved-fluorescence resonance energy transfer (TR-FRET) assay that measures phosphorylation of a fluorescein-labelled peptide substrate Fluorescein-ERM LRRKtide obtainable from Life Technologies Corporation as a result of LRRK2 kinase activity. The phosphorylated peptide is recognized by a terbium-labelled phospho-specific anti-LRRKtide antibody (pLRRKtide antibody), obtainable from Life Technologies Corporation and, subsequently, the phosphorylated LRRKtide can be quantified by the extent of TR-FRET between the terbium donor and fluorescein acceptor. The LRRK2 kinase was obtained from Invitrogen (Life Technologies Corporation) and comprises residue 970 to 2527 of the full length human wild-type LRRK2 kinase, or a similar sequence with the G2019S mutation. As discussed above, this mutation increases the kinase activity relative to the wild type. The kinase reactions were performed in a 20 μL volume in 384-well plates. […] The mixture was further incubated for 30 minutes at RT. […] The measurement was repeated 30 times for fluorescein and 30 times for terbium emission with a 1000 μs time window between repeats. TR-FRET measurements were performed on a Biotek Synergy plate. The TR-FRET signal was calculated as the emission-ratio at 520 nm over 495 nm. The TR-FRET ratio readout for test compounds was normalized to 0% inhibition corresponding to TR-FRET ratio measured in control wells with no inhibition of the kinase activity and 100% inhibition corresponding to TR-FRET ratio measured in control wells with inhibitor. […] C is the IC50 value and D is the Hill slope coefficient. IC50 estimates were obtained from independent experiment and the logarithmic average was calculated.
(In general: Time-resolved FRET reads energy transfer from a long-lived donor to a nearby acceptor.)

Data set [4] has as its target T2, LRRK2 G2019S (Homo sapiens, UniProt Q5S007, G2019S).
T2 construct: purchased Invitrogen (Life Technologies Corporation)
Nature of the data set: LRRK2 G2019S kinase activity assay (LanthaScreen TR-FRET). The format is biochemical. The following applies: 250 pM LRRK2 G2019S, 1.3 mM ATP, 3 h at 30° C.; n≥2 tests. As for the experimental part:
as §1

Where [5] appears, read: brain, oral gavage 10 mg/kg, n = 3, read-out: Total brain concentration.
Where [6] appears, read: plasma, oral gavage 10 mg/kg, n = 3, read-out: Total plasma concentration.
Setting [7] is: po, 10 mg/kg, oral gavage 10 mg/kg.
Where [8] appears, read: brain, oral gavage 5 mg/kg, n = 3, read-out: Total brain concentration.
Setting [9] is: plasma, oral gavage 5 mg/kg, n = 3, read-out: Total plasma concentration.

T2 sequence (Q5S007 970-2527 G2019S): as the sequence (Q5S007 970-2527) above, with G1050S counted along it

Turning to `Cc1c2c(nn1C1CCOCC1)OCCCn1nc(C3CC3)c3cnc(nc31)N2` [Example 7, 8-Cyclopropyl-3-methyl-2-(tetrahydro-2H-pyran-4-yl)-2,4,12,13-tetrahydro-11H-5,7-(azenometheno)dipyrazolo[3,4-b:5′,1′-g][1]oxa[4,6,8]triazacycloundecine], in data set [1], the “fuplasma (% free)” value amounted to 28.7 % free. The concentration at 1 h in data set [2] (setting [5]) was 949 ± 463 ng/g; in data set [2] (setting [6]), 1550 ± 527 ng/mL. This compound also displayed a Kp uu at 1 h in data set [2] (oral gavage 10 mg/kg) of 0.28 ± 0.1. Besides, the Kp (commonly the ratio of the level in a tissue or fluid to that in plasma or blood) at 1 h in data set [2] (oral gavage 10 mg/kg) stood at 0.63 ± 0.23. The IC50 (usually the concentration needed to halve the response being measured) in data set [3] stood at 210 nM; in data set [4], 63 nM.
For `Cc1c2c(nn1C1(C)COC1)OCCCn1nc(Cl)c3cnc(nc31)N2` [Example 14, 8-Chloro-3-methyl-2-(3-methyloxetan-3-yl)-2,4,12,13-tetrahydro-11H-5,7-(azenometheno)dipyrazolo[3,4-b:5′,1′-g][1]oxa[4,6,8]triazacycloundecine], the “fuplasma (% free)” value in data set [1] came out at 38.0 % free. Moreover, the concentration at 1 h in data set [2] (setting [5]) came out at 421 ± 168 ng/g; in data set [2] (setting [6]) it was 280 ± 102 ng/mL. This compound yielded a Kp at 1 h in data set [2] (oral gavage 10 mg/kg) of 1.52 ± 0.37. For the same compound, the Kp uu at 1 h in data set [2] (setting [7]) is 0.3 ± 0.07. Moreover, the values for the half-maximal inhibitory concentration (IC50) in data set [3] and in data set [4] were 16 nM and 4 nM, respectively.
On to `Cc1c2c(nn1[C@@H]1CC1(F)F)OCCCn1nc(Cl)c3cnc(nc31)N2` (single isomer, unassigned) [Example 40, (+)-(R) or (S)-8-Chloro-2-(2,2-difluorocyclopropyl)-3-methyl-2,4,12,13-tetrahydro-11H-5,7-(azenometheno)dipyrazolo[3,4-b:5′,1′-g][1]oxa[4,6,8]triazacycloundecine], for which, in data set [1], the “fuplasma (% free)” value is given as 12.7 % free. Moreover, the concentration at 0.5 h amounted to 138 ± 12 ng/g in data set [2] (setting [8]) and 72 ± 8 ng/mL in data set [2] (setting [9]). Further, in data set [2] (oral gavage 5 mg/kg), the Kp uu at 0.5 h is 0.72 ± 0.08. Also, the Kp at 0.5 h in data set [2] (oral gavage 5 mg/kg) amounted to 1.93 ± 0.22. Besides, the values for the concentration for half-maximal inhibition (IC50) in data set [3] and in data set [4] were 28 nM and 12 nM, respectively.
`Cc1c2c(nn1C1CCOCC1)OCCCn1nc(Br)c3cnc(nc31)N2` [Example 6, 8-Bromo-3-methyl-2-(tetrahydro-2H-pyran-4-yl)-2,4,12,13-tetrahydro-11H-5,7-(azenometheno)dipyrazolo[3,4-b:5′,1′-g][1]oxa[4,6,8]triazacycloundecine]: the “fuplasma (% free)” value in data set [1] came to 34.3 % free. Besides, the concentration at 1 h in data set [2] (setting [5]) came out at 1460 ± 244 ng/g; in data set [2] (setting [6]), 738 ± 24 ng/mL. Moreover, the partition ratio (Kp) at 1 h in data set [2] (oral gavage 10 mg/kg) stood at 1.97 ± 0.27. In addition, the Kp uu at 1 h in data set [2] (setting [7]) is 0.44 ± 0.06.
Regarding `Cc1c2c(nn1[C@@H]1CCOC3(CC3)C1)OCCCn1nc(Cl)c3cnc(nc31)N2` (single isomer, unassigned) [Example 53, (+)-(R) or (S)-8-Chloro-3-methyl-2-(4-oxaspiro[2.5]octan-7-yl)-2,4,12,13-tetrahydro-11H-5,7-(azenometheno)dipyrazolo[3,4-b:5′,1′-g][1]oxa[4,6,8]triazacycloundecine], the “fuplasma (% free)” value in data set [1] was found to be 17.1 % free. Besides, the concentration at 1 h amounted to 363 ± 138 ng/g in data set [2] (setting [8]) and 203 ± 67 ng/mL in data set [2] (setting [9]). This compound also had a Kp uu at 1 h in data set [2] (oral gavage 5 mg/kg) of 0.65 ± 0.06. The same compound gave a concentration ratio (Kp) at 1 h in data set [2] (oral gavage 5 mg/kg) of 1.77 ± 0.16. The half-maximal inhibitory concentration (IC50) turned out to be 3.2 nM in data set [3] and 1.3 nM in data set [4].
With `Cc1c2c(nn1C13CC(C#N)(C1)C3)OCCCn1nc(Cl)c3cnc(nc31)N2` [Example 33, 3-(8-Chloro-3-methyl-12,13-dihydro-11H-5,7-(azenometheno)dipyrazolo[3,4-b:5′,1′-g][1]oxa[4,6,8]triazacycloundecin-2(4H)-yl)bicyclo[1.1.1]pentane-1-carbonitrile], the “fuplasma (% free)” value in data set [1] worked out at 11.0 % free. Moreover, the concentration at 1 h came to 37 ± 1 ng/g in data set [2] (setting [8]) and 43 ± 9 ng/mL in data set [2] (setting [9]). Also, in data set [2] (oral gavage 5 mg/kg), the Kp uu at 1 h came out at 0.4 ± 0.07. In data set [2] (oral gavage 5 mg/kg), this compound had a Kp at 1 h of 0.87 ± 0.15. In addition, the IC50 in data set [3] stood at 18 nM; in data set [4], 5.9 nM.
For the compound `Cc1c2c(nn1[C@H]1[C@@H]3COC[C@@H]31)OCCCn1nc(Cl)c3cnc(nc31)N2` [Example 38, 2-((1R,5S,6r)-3-Oxabicyclo[3.1.0]hexan-6-yl)-8-chloro-3-methyl-2,4,12,13-tetrahydro-11H-5,7-(azenometheno)dipyrazolo[3,4-b:5′,1′-g][1]oxa[4,6,8]triazacycloundecine], the “fuplasma (% free)” value in data set [1] came out at 30.0 % free. Besides, the concentration at 0.5 h was 562 ± 83 ng/g in data set [2] (setting [5]) and 355 ± 31 ng/mL in data set [2] (setting [6]). Besides, the Kp uu at 0.5 h in data set [2] (oral gavage 10 mg/kg) was found to be 0.48 ± 0.03. The concentration ratio (Kp) at 0.5 h in data set [2] (oral gavage 10 mg/kg) amounted to 1.58 ± 0.1. Also, the 50% inhibitory concentration (IC50) amounted to 28 nM in data set [3] and 11 nM in data set [4].
On to `Cc1c2c(nn1[C@H]1CCOC[C@]1(C)F)OCCCn1nc(Cl)c3cnc(nc31)N2` (single isomer, unassigned) [Example 47, (+)-8-Chloro-2-((3R,4S) or (3S,4R)-3-Fluoro-3-methyltetrahydro-2H-pyran-4-yl)-3-methyl-2,4,12,13-tetrahydro-11H-5,7-(azenometheno)dipyrazolo[3,4-b:5′,1′-g][1]oxa[4,6,8]triazacycloundecine], for which, in data set [1], the “fuplasma (% free)” value stood at 24.8 % free. Also, the concentration at 0.5 h stood at 235 ± 119 ng/g in data set [2] (setting [8]) and 83 ± 27 ng/mL in data set [2] (setting [9]). In data set [2] (oral gavage 5 mg/kg), this compound showed a Kp uu at 0.5 h of 0.57 ± 0.17. Further, the concentration ratio (Kp) at 0.5 h in data set [2] (oral gavage 5 mg/kg) came out at 2.69 ± 0.83. Moreover, the results for the 50% inhibitory concentration (IC50) in data set [3] and in data set [4] were 13 nM and 3.1 nM, respectively.
As for `Cc1c2c(nn1C1CCOCC1)OCCCn1nc(C(F)(F)F)c3cnc(nc31)N2` [Example 5, 3-Methyl-2-(tetrahydro-2H-pyran-4-yl)-8-(trifluoromethyl)-2,4,12,13-tetrahydro-11H-5,7-(azenometheno)dipyrazolo[3,4-b:5′,1′-g][1]oxa[4,6,8]triazacycloundecine], the “fuplasma (% free)” value in data set [1] came out at 32.2 % free. Also, the results for the concentration at 1 h in data set [2] (setting [5]) and in data set [2] (setting [6]) were 744 ± 281 ng/g and 336 ± 96 ng/mL, respectively. Besides, the Kp at 1 h in data set [2] (oral gavage 10 mg/kg) is 2.19 ± 0.25. In data set [2] (setting [7]), this compound gave a Kp uu at 1 h of 0.29 ± 0.03. Moreover, the IC50 in data set [3] came out at 23 nM; in data set [4], 7.4 nM.

The values above are taken from patent publication US11780851B2, “LRRK2 inhibitors” (H. Lundbeck A/S, priority 2021, dated 2023).
